Several values for one entry are separate records, joined by “and”; a condition that tells them apart may be missing. Equal values may be shown once.
Experiments:
KRAS G12D = KRAS G12D (Homo sapiens (Human), UniProt P01116+P62937, G12D); experiment: Ras-Raf (BRAF RBD) disruption / FRET / MOA assay, KRAS G12D; assay type: biochemical; settings: Ras-Raf disruption/FRET/MOA assay; class symbols; read-out: KRAS G12D FRET data IC50
How it was run: (§1)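 Compound-driven ternary complex of nucleotide-loaded Ras with cyclophilin A, disrupting BRAF RBD binding. 10-point 3-fold dilution from 30 μM final, 3 h at 25° C, then anti-His Eu-W1024 (10 nM) and anti-GST allophycocyanin (50 nM) for 1.5 h. IC50 from TR-FRET ratio decrease versus DMSO.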

NRAS Q61K = NRAS Q61K (Homo sapiens (Human), UniProt P01111+P62937, Q61K); experiment: Ras-Raf (BRAF RBD) disruption / FRET / MOA assay, NRAS Q61K; assay type: biochemical; settings: NRAS Q61K; Ras-Raf disruption/FRET/MOA assay; read-out: IC50* NRAS Q61K FRET data
Chain of NRAS Q61K (P01111 whole entry Q61K): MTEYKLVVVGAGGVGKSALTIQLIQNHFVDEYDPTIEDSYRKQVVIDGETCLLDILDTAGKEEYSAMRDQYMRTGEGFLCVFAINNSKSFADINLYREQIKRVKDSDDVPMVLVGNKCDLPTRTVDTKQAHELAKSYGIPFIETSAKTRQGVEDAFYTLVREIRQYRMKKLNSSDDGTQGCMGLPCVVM
Chain of NRAS Q61K (P62937 whole entry): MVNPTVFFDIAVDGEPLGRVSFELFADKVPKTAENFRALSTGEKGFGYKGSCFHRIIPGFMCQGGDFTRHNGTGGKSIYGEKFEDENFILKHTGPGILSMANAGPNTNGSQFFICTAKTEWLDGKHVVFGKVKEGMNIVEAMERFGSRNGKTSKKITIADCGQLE
How it was run: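 Compounds (30 μM top final, 10-point 3-fold dilutions) incubated 3 h at 25° C with nucleotide-loaded Ras, cyclophilin A and BRAF RBD. Detection with 10 nM anti-His Eu-W1024 and 50 nM anti-GST allophycocyanin over another 1.5 h. Lowered TR-FRET ratio relative to DMSO wells gives IC50.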

KRAS G12S = KRAS G12S (Homo sapiens (Human), UniProt P01116+P62937, G12S); experiment: Ras-Raf (BRAF RBD) disruption / FRET / MOA assay, KRAS G12S; assay type: biochemical; settings: Ras-Raf disruption/FRET/MOA assay; class symbols; read-out: KRAS G12S FRET data IC50
Chain of KRAS G12S (P01116-2 other isoform, or with tags, fused parts or gaps G12S): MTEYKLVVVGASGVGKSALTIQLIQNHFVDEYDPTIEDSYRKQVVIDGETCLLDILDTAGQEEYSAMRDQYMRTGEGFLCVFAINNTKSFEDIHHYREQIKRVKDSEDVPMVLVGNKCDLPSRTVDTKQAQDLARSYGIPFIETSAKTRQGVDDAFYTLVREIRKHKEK
Chain of KRAS G12S (P62937 whole entry): as the sequence (P62937 whole entry) above
How it was run: as §1

KRAS G12V = KRAS G12V (Homo sapiens (Human), UniProt P01116+P62937, G12V); experiment: Ras-Raf (BRAF RBD) disruption / FRET / MOA assay, KRAS G12V; assay type: biochemical; settings: read-out: IC50* KRAS G12V FRET data
Chain of KRAS G12V (P01116-2 other isoform, or with tags, fused parts or gaps G12V): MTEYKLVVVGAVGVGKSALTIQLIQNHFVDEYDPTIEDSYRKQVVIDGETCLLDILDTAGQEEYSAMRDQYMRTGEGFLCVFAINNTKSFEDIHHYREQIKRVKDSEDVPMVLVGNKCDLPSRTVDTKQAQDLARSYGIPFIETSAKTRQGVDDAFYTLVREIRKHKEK
Chain of KRAS G12V (P62937 whole entry): as the sequence (P62937 whole entry) above
How it was run: as §1

NCI-H358 (K-Ras G12C) = experiment: CellTiter-Glo cell viability assay, NCI-H358; assay type: cell-based, human; settings: Homo sapiens, NCI-H358, 120 h, NCI-H358, 5-day treatment; class symbols; read-out: Additional H358 Cell Viability assay data (K-Ras G12C, IC50)
How it was run: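 Viability measured by CellTiter-Glo luminescence on day 5 following direct addition of compound to plated cells. Values expressed as percent of mean DMSO signal; curves fitted with a four-parameter logistic model.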

KRAS G13D = KRAS G13D (Homo sapiens (Human), UniProt P01116+P62937, G13D); experiment: Ras-Raf (BRAF RBD) disruption / FRET / MOA assay, KRAS G13D; assay type: biochemical; settings: read-out: IC50* KRAS G13D FRET data
Chain of KRAS G13D (P01116-2 other isoform, or with tags, fused parts or gaps G13D): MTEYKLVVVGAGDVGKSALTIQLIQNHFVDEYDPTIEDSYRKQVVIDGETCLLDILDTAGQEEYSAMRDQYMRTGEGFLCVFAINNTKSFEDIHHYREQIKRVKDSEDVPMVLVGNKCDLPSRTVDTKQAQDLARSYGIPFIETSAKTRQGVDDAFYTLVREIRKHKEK
Chain of KRAS G13D (P62937 whole entry): as the sequence (P62937 whole entry) above
How it was run: as §1

Chain of KRAS G12D (P01116-2 other isoform, or with tags, fused parts or gaps G12D): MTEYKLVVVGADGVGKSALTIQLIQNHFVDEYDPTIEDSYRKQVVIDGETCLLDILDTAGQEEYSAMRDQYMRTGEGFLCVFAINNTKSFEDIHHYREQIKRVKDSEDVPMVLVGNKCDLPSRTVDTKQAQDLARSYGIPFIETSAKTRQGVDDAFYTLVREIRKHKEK
Chain of KRAS G12D (P62937 whole entry): as the sequence (P62937 whole entry) above

IC50 (KRAS G12D) [µM]	IC50 (NRAS Q61K) [µM]	IC50 (KRAS G12S) [µM]	IC50 (KRAS G12V)	IC50 (NCI-H358 (K-Ras G12C)) [µM]	IC50 (KRAS G13D) [µM]	Compound
> 10	0.1 to 1	1 to 10	1 to 10 µM	< 0.01	1 to 10	C=CC(=O)N1CCO[C@H]2CN(C(=O)N(C)[C@H](C(=O)N[C@H]3Cc4nc(cs4)-c4ccc5c(c4)c(c(-c4cccnc4[C@H](C)OC)n5CC)CC(C)(C)COC(=O)[C@@H]4CCCN(N4)C3=O)C(C)C)C[C@H]21 (atropisomer, axis not shown) [Example A706]
0.1 to 1	0.01 to 0.1	0.01 to 0.1	0.1 to 1 µM	< 0.01	0.1 to 1	C=CC(=O)N1CCN(C(=O)N(C)[C@H](C(=O)N[C@H]2Cc3nc(cs3)-c3ccc4c(c3)c(c(-c3cccnc3[C@H](C)OC)n4CC)CC(C)(C)COC(=O)[C@@H]3CCCN(N3)C2=O)C(C)C)[C@@H]2C[C@@H]21 (atropisomer, axis not shown) [Example A736]
1 to 10	1 to 10	0.1 to 1	0.1 to 1 µM	< 0.01	1 to 10	C=CC(=O)C1CC[C@H](C(=O)N(C)[C@H](C(=O)N[C@H]2Cc3cc(O)cc(c3)-c3ccc4c(c3)c(c(-c3cnn(C)c3[C@H](C)OC)n4CC)CC(C)(C)COC(=O)[C@@H]3CCCN(N3)C2=O)C(C)C)C1 (stereo partly drawn) [Example A166]
0.1 to 1	0.1 to 1	0.01 to 0.1	0.01 to 0.1 µM	< 0.01	0.1 to 1	C=CC(=O)N1CC[C@H](C(=O)N(C)[C@H](C(=O)N[C@H]2Cc3cc(O)cc(c3)-c3ccc4c(c3)c(c(-c3cncc5c3[C@@H](OC)CC5)n4CC)CC(C)(C)COC(=O)[C@@H]3CCCN(N3)C2=O)C(C)C)C1 [Example A275]
> 10	> 10	> 10	> 10 µM	> 1	> 10	C=CC(=O)N1CC[C@H](C(=O)N(C)[C@H](C(=O)N[C@H]2Cc3nc(ns3)-c3ccc4c(c3)c(c(-c3cncnc3)n4CC)CC(C)(C)COC(=O)[C@@H]3CCCN(N3)C2=O)C(C)C)C1 [Example A285]
0.1 to 1	0.1 to 1	0.01 to 0.1	0.01 to 0.1 µM	< 0.01	0.01 to 0.1	C=CC(=O)N1CC[C@H](C(=O)N(C)[C@H](C(=O)N[C@H]2Cc3cc(O)cc(c3)-c3ccc4c(c3)c(c(-c3cnn5c3[C@@H](OC)CCC5)n4CC)CC(C)(C)COC(=O)[C@@H]3CCCN(N3)C2=O)C(C)C)C1 [Example A300]
> 10	> 10	> 10	1 µM to 10 µM and > 10 µM (2×)	< 0.01	> 10	CCn1c(-c2cccnc2[C@H](C)OC)c2c3cc(ccc31)-c1cccc(c1)C[C@H](NC(=O)C(COC1CN(C(=O)C#CC(C)(C)N(C)C)C1)C(C)C)C(=O)N1CCC[C@H](N1)C(=O)OCC(C)(C)C2 (stereo partly drawn) [Example A316, (2R)-2-(((1-(4-(dimethylamino)-4-methylpent-2-ynoyl)azetidin-3-yl)oxy)methyl)-N-((6^3S,4S)-1^1-ethyl-1^2-(2-((S)-1-methoxyethyl)pyridin-3-yl)-10,10-dimethyl-5,7-dioxo-6^1,6^2,6^3,6^4,6^5,6^6-hexahydro-1^1H-8-oxa-1(5,3)-indola-6(1,3)-pyridazina-2(1,3)-benzenacycloundecaphane-4-yl)-3-methylbutanamide]
1 to 10	1 to 10	0.1 to 1	0.1 to 1 µM	< 0.01	0.1 to 1	C=CC(=O)N1CCC(C(=O)N(C)[C@H](C(=O)N[C@H]2Cc3cc(CF)cc(c3)-c3ccc4c(c3)c(c(-c3cccnc3[C@H](C)OC)n4CC(F)(F)F)CC(C)(C)COC(=O)[C@@H]3CCCN(N3)C2=O)C(C)C)C1 (stereo partly drawn) [Example A659]
> 10	> 10	1 to 10	1 to 10 µM	< 0.01	1 to 10	CCn1c(-c2cccnc2[C@H](C)OC)c2c3cc(ccc31)N1CCO[C@@H](C[C@H](NC(=O)[C@H](C(C)C)N(C)C(=O)[C@@]3(F)CCC(C(=O)C#CC(C)(C)N4CCC4)C3)C(=O)N3CCC[C@H](N3)C(=O)OCC(C)(C)C2)C1 (stereo partly drawn) [Example A726]

Compound	IC50 (KRAS G12D) [µM]	IC50 (NRAS Q61K) [µM]	IC50 (KRAS G12S) [µM]	IC50 (KRAS G12V)	IC50 (NCI-H358 (K-Ras G12C)) [µM]	IC50 (KRAS G13D) [µM]
C=CC(=O)N1CCOC2(CCN(C(=O)N(C)[C@H](C(=O)N[C@H]3Cc4nc(cs4)-c4ccc5c(c4)c(c(-c4cccnc4[C@H](C)OC)n5CC)CC(C)(C)COC(=O)[C@@H]4CCCN(N4)C3=O)C(C)C)CC2)C1 (atropisomer, axis not shown) [Example A695]	1 to 10	0.1 to 1	0.1 to 1	0.1 to 1 µM	0.01 to 0.1	0.1 to 1
C=CC(=O)N1CCC2(CC1)CCN(C(=O)N(C)[C@H](C(=O)N[C@H]1Cc3nc(cs3)-c3ccc4c(c3)c(c(-c3cccnc3[C@H](C)OC)n4CC)CC(C)(C)COC(=O)[C@@H]3CCCN(N3)C1=O)C(C)C)CC2 (atropisomer, axis not shown) [Example A697]	0.1 to 1	0.01 to 0.1	0.1 to 1	0.1 to 1 µM	0.01 to 0.1	0.1 to 1
C=CC(=O)N1CCC(F)(C(=O)N(C)[C@H](C(=O)N[C@H]2Cc3nc(cs3)-c3ccc4c(c3)c(c(-c3cccnc3[C@H](C)OC)n4CC)CC(C)(C)COC(=O)[C@@H]3CCCN(N3)C2=O)C(C)C)CC1 (atropisomer, axis not shown) [Example A700]	0.1 to 1	0.1 to 1	0.1 to 1	0.1 to 1 µM	< 0.01	0.1 to 1
CO[C@@H](C)c1ncccc1-c1c2c3cc(ccc3n1CC(F)(F)F)-c1cnc(o1)C[C@H](NC(=O)[C@H](C(C)C)N(C)C(=O)[C@H]1CCN(C(=O)C#CC(C)(C)N(C)C)C1)C(=O)N1CCC[C@H](N1)C(=O)OCC(C)(C)C2 (atropisomer, axis not shown) [Example A707]	1 to 10	> 10	1 to 10	1 to 10 µM	< 0.01	1 to 10
CO[C@@H](C)c1ncccc1-c1c2c3nc(ccc3n1CC(F)(F)F)-c1cccc(c1)C[C@H](NC(=O)[C@@H](COC1CN(C(=O)C#CC(C)(C)N(C)C)C1)C(C)C)C(=O)N1CCC[C@H](N1)C(=O)OCC(C)(C)C2 (atropisomer, axis not shown) [Example A724]	> 10	> 10	> 10	> 10 µM	< 0.01	> 10
CCn1c(-c2cccnc2[C@H](C)OC)c2c3cc(ccc31)-c1cccc(c1)C[C@H](NC(=O)[C@H](C(C)C)N1CO[C@@]3(CCN(C(=O)C#CC(C)(C)N4CCC4)C3)C1=O)C(=O)N1CCC[C@H](N1)C(=O)OCC(C)(C)C2 (atropisomer, axis not shown) [Example A733]	> 10	> 10	1 to 10	1 to 10 µM	< 0.01	> 10
